In PubChem BioAssay AID1996:
In brackets after ≈: the same amount, converted by molar mass.

Conditions: buffer; pH 7.4; 200.0 µM

With `O=C(/C=C/c1ccco1)Nc1ccc(CN2CCOCC2)cc1` as the compound, how does the solubility kinetic read?
Its solubility kinetic is > 46.9 µg/mL.

Which solubility kinetic does the source give for `CCCC(=O)N=c1sc2c(OC)ccc(OC)c2n1C` here?
Its solubility kinetic is < 0.3 µg/mL.

Which solubility kinetic does the source give for `COc1ccc(-n2c(C)nc3sc4c(c3c2=O)CCCC4)cc1` here?
The solubility kinetic was 6.4 µg/mL (≈ 19.6 µM).

For `CN(C)c1nc2ncn(Cc3ccccc3)c2c(=O)[nH]1`, which solubility kinetic is on record?
Its solubility kinetic is > 40.4 µg/mL.

Which solubility kinetic does the source give for `O=C(NN1CCOCC1)c1ccc(F)cc1` here?
Its solubility kinetic is > 33.6 µg/mL.

Which solubility kinetic does the source give for `CCC(=Nc1ccccc1N)c1c(O)[nH]c(=O)[nH]c1=O` here?
The solubility kinetic was 5.6 µg/mL (≈ 20.4 µM).

Which solubility kinetic does the source give for `O=C(Nc1ccccc1C(=O)Nc1ccc(F)cc1)c1ccco1` here?
Its solubility kinetic is 0.9 µg/mL (≈ 2.78 µM).

For `COc1ccccc1C(=O)NCC(=O)NCCc1ccc(Cl)cc1`, which solubility kinetic is on record?
The solubility kinetic was 38.8 µg/mL (≈ 112 µM).

For `C=CCN1CCN(C(=O)CSc2ccccc2)CC1`, which solubility kinetic is on record?
The solubility kinetic was > 41.5 µg/mL.

For `CC1Oc2ccccc2N(CC(=O)N2CCCC2)C1=O` (centres undefined), which solubility kinetic is on record?
The solubility kinetic was > 41.1 µg/mL.

With `COC(=O)c1c(NC(=O)C(C)C)sc(C(=O)N2CCOCC2)c1C` as the compound, how does the solubility kinetic read?
The solubility kinetic was > 53.2 µg/mL.

For `CC(C)(C)c1ccc(C(=O)NC(=S)N2CCCC2)cc1`, which solubility kinetic is on record?
The solubility kinetic was 7.2 µg/mL (≈ 24.8 µM).

With `O=C(NCCc1csc(-c2ccccc2)n1)c1ccccc1F` as the compound, how does the solubility kinetic read?
The solubility kinetic was 40.2 µg/mL (≈ 123 µM).

Which solubility kinetic does the source give for `O=[N+]([O-])c1ccc(Sc2cccc3cccnc23)c2cccnc12` here?
Its solubility kinetic is < 0.2 µg/mL.

Which solubility kinetic does the source give for `O=C(c1cc2c(s1)CCCC2)N1CCN(c2ccccc2)CC1` here?
Its solubility kinetic is 1.5 µg/mL (≈ 4.59 µM).

For `O=c1c(-c2ccccc2)c(O)c2ccccc2n1-c1ccccc1`, which solubility kinetic is on record?
Its solubility kinetic is > 47 µg/mL.

For `CC(C)Cn1c(N)c(C(=O)COC(=O)c2ccccc2C(=O)c2ccccc2)c(=O)n(C)c1=O`, which solubility kinetic is on record?
The solubility kinetic was 3.5 µg/mL (≈ 7.55 µM).

Which solubility kinetic does the source give for `Cc1ccc(N2CC(=O)N(CC(=O)O)C2=O)cc1` here?
The solubility kinetic was > 37.2 µg/mL.

With `CC(C)(C)c1ccc(/C=C/C(=O)Nc2cccnc2)cc1` as the compound, how does the solubility kinetic read?
Its solubility kinetic is 1 µg/mL (≈ 3.57 µM).

For `O=C(COC(=O)c1ccco1)NCc1ccc(Cl)cc1`, which solubility kinetic is on record?
The solubility kinetic was 16.4 µg/mL (≈ 55.8 µM).

For `COc1ccc(/C=C2\SC(N)=NC2=O)cc1Cl`, which solubility kinetic is on record?
Its solubility kinetic is 3.1 µg/mL (≈ 11.5 µM).

For `CC(=O)N1CCN(C(=O)C2CCN(S(=O)(=O)c3ccccc3C(F)(F)F)CC2)CC1`, which solubility kinetic is on record?
Its solubility kinetic is > 67.1 µg/mL.

Which solubility kinetic does the source give for `CN(C)CC/C=C1/c2ccccc2CS(=O)(=O)c2ccccc21` here?
The solubility kinetic was 47.6 µg/mL (≈ 145 µM).

For `Nc1ccc(S(=O)(=O)[O-])cn1.[Na+]`, which solubility kinetic is on record?
The solubility kinetic was > 29.4 µg/mL.

Which solubility kinetic does the source give for `CC1CCC(NC(=O)CN(C)S(=O)(=O)c2cnc[nH]2)CC1` (centres undefined) here?
Its solubility kinetic is > 47.2 µg/mL.

For `COc1ccc(-c2cc(C(=O)OCC(=O)N3CCCCC3)c3ccccc3n2)cc1OC`, which solubility kinetic is on record?
Its solubility kinetic is 13.8 µg/mL (≈ 31.8 µM).

With `CCn1c(SCC(=O)Nc2nccc(C)n2)nc2ccccc21` as the compound, how does the solubility kinetic read?
The solubility kinetic was > 49.1 µg/mL.

With `COC(=O)c1[nH]c2cccc(OC)c2c1NC(=O)CCN1CCSCC1` as the compound, how does the solubility kinetic read?
The solubility kinetic was 54.6 µg/mL (≈ 145 µM).

Which solubility kinetic does the source give for `O=C(NCC(c1ccco1)N1CCCC1)c1cc(S(=O)(=O)N2CCCCC2)ccc1Cl` (centres undefined) here?
Its solubility kinetic is > 69.9 µg/mL.

Which solubility kinetic does the source give for `CN1CCN(c2nc3ccccc3nc2NS(=O)(=O)c2ccc(Br)cc2)CC1` here?
The solubility kinetic was > 69.4 µg/mL.

For `Cc1ccc(NC(=O)CN2CCc3ccccc3C2)cc1F`, which solubility kinetic is on record?
The solubility kinetic was 23.1 µg/mL (≈ 77.4 µM).

Which solubility kinetic does the source give for `CC(=O)N1CCN(C(=O)COC(=O)/C=C/c2ccccc2[N+](=O)[O-])CC1` here?
Its solubility kinetic is > 54.2 µg/mL.

Which solubility kinetic does the source give for `CCOc1ccc(Nc2nc3ccccc3n2C)cc1` here?
The solubility kinetic was > 40.1 µg/mL.

For `O=C(CCCOc1ccccc1)Nc1cccc(S(=O)(=O)N2CCOCC2)c1`, which solubility kinetic is on record?
Its solubility kinetic is 57.6 µg/mL (≈ 142 µM).

Which solubility kinetic does the source give for `CC(NC(=O)COC(=O)c1ccc([N+](=O)[O-])o1)c1ccccc1` (centres undefined) here?
The solubility kinetic was > 47.7 µg/mL.

With `COC(=O)c1c(C)[nH]c(C=O)c1-c1ccccc1` as the compound, how does the solubility kinetic read?
Its solubility kinetic is > 36.5 µg/mL.

Which solubility kinetic does the source give for `O=C(c1ccc(-c2ccc([N+](=O)[O-])cc2)o1)N1CCCCCCC1` here?
The solubility kinetic was 9.1 µg/mL (≈ 27.7 µM).

Which solubility kinetic does the source give for `O=C(NCCN1CCCCC1)Nc1ccc(F)cc1` here?
Its solubility kinetic is 37.4 µg/mL (≈ 141 µM).

For `O=C(CN1CCC(C(=O)O)CC1)Nc1ccccc1Oc1ccccc1`, which solubility kinetic is on record?
The solubility kinetic was 47.5 µg/mL (≈ 134 µM).

Which solubility kinetic does the source give for `COc1cc2c(cc1OC)/C(=C/C(=O)c1ccc(C)cc1)NCC2` here?
Its solubility kinetic is 24.8 µg/mL (≈ 76.7 µM).

With `O=[N+]([O-])c1cccc(C(=NCc2ccccc2)NO)c1` as the compound, how does the solubility kinetic read?
The solubility kinetic was > 40.7 µg/mL.

For `CCOC(=O)c1cc2c(cn1)[nH]c1ccccc12`, which solubility kinetic is on record?
The solubility kinetic was 7.5 µg/mL (≈ 31.2 µM).

For `CCN(C(=O)CSc1cccc[n+]1[O-])C1CCCCC1`, which solubility kinetic is on record?
The solubility kinetic was > 44.2 µg/mL.

With `O=C(/C=C/c1cccs1)NC(=S)Nc1ccccc1` as the compound, how does the solubility kinetic read?
Its solubility kinetic is 1.3 µg/mL (≈ 4.51 µM).

For `Br.N#Cc1ccc(CSC2=NCCN2)cc1`, which solubility kinetic is on record?
The solubility kinetic was > 44.7 µg/mL.

Which solubility kinetic does the source give for `Cc1cccnc1NC(=O)C1COc2ccccc2O1` (centres undefined) here?
Its solubility kinetic is 40.1 µg/mL (≈ 148 µM).

For `Cc1ccc(NC(=S)NCCc2ccccc2)nc1`, which solubility kinetic is on record?
The solubility kinetic was < 0.2 µg/mL.

Which solubility kinetic does the source give for `Cc1cc(OCC(=O)NC2CC2)c2c(C)c(C)c(=O)oc2c1` here?
The solubility kinetic was 2.5 µg/mL (≈ 8.3 µM).

Which solubility kinetic does the source give for `O=C(N/N=C/c1cccnc1)c1ccccc1Cl` here?
Its solubility kinetic is > 39 µg/mL.

For `CCC(C)NC(=O)c1cc2c(=O)n3ccccc3nc2s1` (centres undefined), which solubility kinetic is on record?
The solubility kinetic was 33 µg/mL (≈ 109 µM).

Which solubility kinetic does the source give for `O=C(c1ccc(Br)cc1)N1CCN(c2ncccn2)CC1` here?
The solubility kinetic was 44.6 µg/mL (≈ 128 µM).

For `CN(C(=O)COC(=O)c1ccccc1C(=O)c1ccccc1)c1ccccc1`, which solubility kinetic is on record?
Its solubility kinetic is 42.7 µg/mL (≈ 114 µM).

With `Cc1nc(Cl)c(C(=O)NCCc2ccccc2)c(C)c1[N+](=O)[O-]` as the compound, how does the solubility kinetic read?
The solubility kinetic was 3.5 µg/mL (≈ 10.5 µM).

With `O=C(NC1CCCCC1)C1CC(=O)N(CCc2ccc(F)cc2)C1` (centres undefined) as the compound, how does the solubility kinetic read?
The solubility kinetic was 45 µg/mL (≈ 135 µM).

Which solubility kinetic does the source give for `O=C(CCC(=O)c1cccs1)NCc1cccc(Cl)c1` here?
Its solubility kinetic is > 46.2 µg/mL.

With `CCOC(=O)c1sc(=S)n(CC)c1NC(=O)c1ccccc1` as the compound, how does the solubility kinetic read?
Its solubility kinetic is 8.8 µg/mL (≈ 26.2 µM).

With `CCCn1c(=S)[nH]c2sc3c(c2c1=O)CCCC3` as the compound, how does the solubility kinetic read?
The solubility kinetic was 1.4 µg/mL (≈ 4.99 µM).

With `CCOc1ccc(N(CC(=O)N2CCCCCC2)S(=O)(=O)c2ccc(C)cc2)cc1` as the compound, how does the solubility kinetic read?
The solubility kinetic was 23.6 µg/mL (≈ 54.8 µM).

For `Cc1ccc(-c2c(NCCc3ccccc3)c(=O)c2=O)cc1`, which solubility kinetic is on record?
The solubility kinetic was < 0.6 µg/mL.
